Tests used:
[1] = tested on: L-type Ca channel; assay: Pharmacological Test Example 1: whole cell patch clamp, Ca current inhibition in BHK cells expressing L-type Ca channel; assay type: cell-based; conditions: for Inhibition (%): L-type Ca channel, BHK cells, 5 minutes after application, mean ± SE
Description: (§1) Pharmacological Test Example 1 (effect on L-type and T-type Ca (calcium) channel expressed in mammalian cells (BHK cells))
(§2) In this test, an electrophysiological evaluation was carried out by use of BHK (baby hamster kidney) cells in which L-type Ca channel or T-type Ca channel (α1G) was expressed according to the method of Wakamori M et al. (Wakamori M et al.: J Biol Chem 273, 34857-34867,1998) based on the whole cell patch clamp method. Each Ca-ion current was measured through a patch clamp amplifier as an inward current when depolarization pulse (10 mV in L-type Ca channel, −20 mV in T-type Ca channel) was applied to cells maintained at a membrane potential of −80 mV. Optically active R-form or S-form of efonidipine was dissolved in extracellular solution and applied with perfusion. At 5 minutes after the application, any variation in Ca-ion current was measured. The results are shown in Ca current inhibition (%) of the compound of the present invention to Ca current (100%) in vehicle control.

[2] = biological target: T1, T-type Ca channel (α1G) (Homo sapiens, UniProt O43497); assay: Pharmacological Test Example 1: whole cell patch clamp, Ca current inhibition in BHK cells expressing T-type Ca channel; assay type: cell-based
T1 construct: expressed in transfected cells; host or cells: BHK (baby hamster kidney) cells
Description: as §1, §2

[3] = T-type Ca channel, concentration 0.1 μM, BHK cells, 5 minutes after application, mean ± SE, 0.1 µM

T1 sequence (O43497 whole entry): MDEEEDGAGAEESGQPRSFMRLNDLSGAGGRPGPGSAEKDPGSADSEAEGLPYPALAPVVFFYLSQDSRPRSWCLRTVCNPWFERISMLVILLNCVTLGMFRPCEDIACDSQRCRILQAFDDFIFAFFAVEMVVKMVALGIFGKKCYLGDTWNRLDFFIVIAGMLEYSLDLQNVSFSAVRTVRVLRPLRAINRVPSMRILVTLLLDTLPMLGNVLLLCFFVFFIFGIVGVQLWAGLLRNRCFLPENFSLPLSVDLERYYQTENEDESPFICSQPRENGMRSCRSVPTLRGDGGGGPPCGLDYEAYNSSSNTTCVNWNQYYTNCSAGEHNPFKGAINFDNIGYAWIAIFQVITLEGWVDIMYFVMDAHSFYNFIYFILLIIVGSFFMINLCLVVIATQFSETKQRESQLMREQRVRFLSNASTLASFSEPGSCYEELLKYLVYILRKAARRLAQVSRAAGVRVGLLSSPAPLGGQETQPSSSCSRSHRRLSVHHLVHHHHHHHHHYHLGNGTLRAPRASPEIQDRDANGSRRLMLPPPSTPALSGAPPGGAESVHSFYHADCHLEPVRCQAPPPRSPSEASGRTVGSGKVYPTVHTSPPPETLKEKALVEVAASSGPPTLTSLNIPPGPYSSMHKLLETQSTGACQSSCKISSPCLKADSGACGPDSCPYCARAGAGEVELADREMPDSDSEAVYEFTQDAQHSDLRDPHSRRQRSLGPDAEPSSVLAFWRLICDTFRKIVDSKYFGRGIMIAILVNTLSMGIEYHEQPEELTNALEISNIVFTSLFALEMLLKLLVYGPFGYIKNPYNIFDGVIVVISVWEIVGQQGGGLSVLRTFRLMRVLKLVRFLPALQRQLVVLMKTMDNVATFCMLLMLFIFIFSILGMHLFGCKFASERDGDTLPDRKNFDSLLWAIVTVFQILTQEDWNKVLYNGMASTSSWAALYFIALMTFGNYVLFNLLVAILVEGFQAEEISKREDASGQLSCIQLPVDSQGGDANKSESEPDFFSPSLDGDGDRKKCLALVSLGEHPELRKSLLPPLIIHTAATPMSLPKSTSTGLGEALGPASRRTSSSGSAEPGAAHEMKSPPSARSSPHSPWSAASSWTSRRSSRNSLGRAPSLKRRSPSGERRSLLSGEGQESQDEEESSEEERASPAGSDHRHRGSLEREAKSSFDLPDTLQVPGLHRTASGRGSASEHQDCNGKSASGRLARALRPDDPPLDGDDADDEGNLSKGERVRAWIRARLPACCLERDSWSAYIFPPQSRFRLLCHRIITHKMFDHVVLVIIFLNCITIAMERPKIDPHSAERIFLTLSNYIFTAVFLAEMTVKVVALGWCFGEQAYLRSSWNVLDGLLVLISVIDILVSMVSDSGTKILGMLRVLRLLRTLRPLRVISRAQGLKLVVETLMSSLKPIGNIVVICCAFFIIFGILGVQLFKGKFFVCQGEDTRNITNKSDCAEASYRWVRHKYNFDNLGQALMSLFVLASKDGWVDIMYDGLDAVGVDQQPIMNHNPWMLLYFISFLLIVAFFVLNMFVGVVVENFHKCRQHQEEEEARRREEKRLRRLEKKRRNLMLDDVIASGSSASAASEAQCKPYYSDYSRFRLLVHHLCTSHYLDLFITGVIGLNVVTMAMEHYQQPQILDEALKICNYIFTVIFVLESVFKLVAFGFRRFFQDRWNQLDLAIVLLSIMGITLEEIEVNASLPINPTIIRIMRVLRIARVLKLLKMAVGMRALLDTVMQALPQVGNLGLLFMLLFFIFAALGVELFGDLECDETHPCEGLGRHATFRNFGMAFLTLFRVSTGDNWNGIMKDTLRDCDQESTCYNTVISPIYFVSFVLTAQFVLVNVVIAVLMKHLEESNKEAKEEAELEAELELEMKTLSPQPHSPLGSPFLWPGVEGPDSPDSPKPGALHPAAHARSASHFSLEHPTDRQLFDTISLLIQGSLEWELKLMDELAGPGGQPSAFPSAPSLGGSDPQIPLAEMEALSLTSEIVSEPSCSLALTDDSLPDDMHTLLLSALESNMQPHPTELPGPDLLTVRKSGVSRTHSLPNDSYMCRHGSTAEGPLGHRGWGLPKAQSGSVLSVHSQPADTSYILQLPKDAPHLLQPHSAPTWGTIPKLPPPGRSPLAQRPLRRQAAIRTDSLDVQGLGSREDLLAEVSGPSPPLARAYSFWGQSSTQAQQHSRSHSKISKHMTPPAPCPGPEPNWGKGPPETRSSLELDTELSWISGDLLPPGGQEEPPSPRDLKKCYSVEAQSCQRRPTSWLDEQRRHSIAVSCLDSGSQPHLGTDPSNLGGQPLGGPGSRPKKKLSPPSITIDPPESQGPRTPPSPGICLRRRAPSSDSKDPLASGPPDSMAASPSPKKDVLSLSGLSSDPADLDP

| inhibition at 1 µM ([2]; BHK, T-type Ca channel, concentration 1 μM, BHK cells, 5 minutes after application, mean ± SE) | inhibition at 10 µM ([2]; BHK, T-type Ca channel, concentration 10 μM, BHK cells, 5 minutes after application, mean ± SE) | Inhibition (%) [2, 3] | selectivity for T-type Ca channel ([2]; T-type versus L-type Ca channel) | inhibition for T-type Ca channel (in words) ([2]; concentration of 0.1 μM or more) | Inhibition (%) ([2]; T-type Ca channel, concentration 1 μM, BHK cells, 5 minutes after application, mean ± SE, 1 µM) | Inhibition (%) ([2]; T-type Ca channel, concentration 10 μM, BHK cells, 5 minutes after application, mean ± SE, 10 µM) | SMILES | Inhibition (%) ([1]; concentration 10 μM) | inhibition for L-type Ca channel (in words) ([1]; concentration of 10 μM) | Inhibition (%) ([1]; concentration 1 μM) |
| --- | --- | --- | --- | --- | --- | --- | --- | --- | --- | --- |
| 41.7 ± 5.3% | 72.7 ± 5.6% | 19.4 ± 4.88% | high selectivity | concentration-dependent inhibition |  |  | CC1=C(C(=O)OCCN(Cc2ccccc2)c2ccccc2)C(c2cccc([N+](=O)[O-])c2)C(P2(=O)OCC(C)(C)CO2)=C(C)N1 (centres unmarked) [Efonidipine R-form, 1,4-dihydro-2,6-dimethyl-5-(5,5-dimethyl-2-oxo-1,3,2-dioxaphosphorinan-2-yl)-4-(3-nitrophenyl)-3-pyridine carboxylic acid 2-[benzyl (phenyl)amino]ethylester] | 2.2 ± 3.4% | did not show any inhibition |  |
|  |  | 7.7% |  |  | 42.9 ± 8.4% | 75.6 ± 7.1% | CC1=C(C(=O)OCCN(Cc2ccccc2)c2ccccc2)C(c2cccc([N+](=O)[O-])c2)C(P2(=O)OCC(C)(C)CO2)=C(C)N1 (centres unmarked) [Efonidipine S-form, 1,4-dihydro-2,6-dimethyl-5-(5,5-dimethyl-2-oxo-1,3,2-dioxaphosphorinan-2-yl)-4-(3-nitrophenyl)-3-pyridine carboxylic acid 2-[benzyl (phenyl)amino]ethylester, reference compound] |  |  | 55.6±7.1% |

From US7563782B2, “T-type calcium channel blocker” (Nissan Chemical Industries, Ltd., priority 2003, dated 2009)
